{
  "source": "paper PMC12305721",
  "about": "(International Journal of Pharmaceutics: X, 2025)",
  "origin": "cited, not measured here",
  "set-up": "method as in Song et al., 2016",
  "conditions": "reduced from −43.19 °C; ref Song et al., 2016",
  "data": [
    {"smiles": "CCCCCCCCCCCCN1CCCCCC1=O", "note": "[Azone]", "values": [
      {"measurement": "Tg of PSAs after incorporation of Azone", "result": "−52.92", "unit": "°C"}
    ]}
  ]
}
